Assay results published in PubChem BioAssay (NCI).
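Method: 48-hour compound exposure of cells in 96-well plates, five concentrations, linear interpolation of endpoints. At the GI50, growth is halved. TGI: total growth inhibition.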

Assays:
Test in all cases: NCI tumour cell line growth inhibition, 48 h
HOP-62 NSCLC = test system: HOP-62 NSCLC
CCRF-CEM leukemia = test system: CCRF-CEM leukemia
LOX IMVI melanoma = test system: LOX IMVI melanoma
KM12 colon = test system: KM12 colon
SNB-75 CNS = test system: SNB-75 CNS
EKVX NSCLC = test system: EKVX NSCLC
UACC-62 melanoma = test system: UACC-62 melanoma
UACC-257 melanoma = test system: UACC-257 melanoma
RPMI-8226 leukemia = test system: RPMI-8226 leukemia
SF-539 CNS = test system: SF-539 CNS

COc1cc(S(=O)(=O)Nc2ccc(C(=O)/C=C/c3ccc(O)cc3)cc2)ccc1F
GI50 (HOP-62 NSCLC): > 100 µM
TGI (HOP-62 NSCLC): > 100 µM
GI50 (CCRF-CEM leukemia): > 100 µM
TGI (CCRF-CEM leukemia): > 100 µM
GI50 (LOX IMVI melanoma): > 100 µM
TGI (LOX IMVI melanoma): > 100 µM
GI50 (KM12 colon): > 100 µM
TGI (KM12 colon): > 100 µM
GI50 (SNB-75 CNS): 87.5 µM
TGI (SNB-75 CNS): > 100 µM
GI50 (EKVX NSCLC): 80.5 µM
TGI (EKVX NSCLC): > 100 µM
GI50 (UACC-62 melanoma): 57.6 µM
TGI (UACC-62 melanoma): > 100 µM
GI50 (UACC-257 melanoma): > 100 µM
TGI (UACC-257 melanoma): > 100 µM
GI50 (RPMI-8226 leukemia): 58.5 µM
TGI (RPMI-8226 leukemia): > 100 µM
GI50 (SF-539 CNS): > 100 µM
TGI (SF-539 CNS): > 100 µM
